The values below come from patent US10765681B2 (Academia Sinica, priority 2016, dated 2020).

In one data set the test system is H1975 lung cancer cells. Briefly: MTT assay, growth of H1975 lung cancer cells. The class given is cell-based. Particulars: Homo sapiens. Background: Formazan colour is commonly taken as a measure of viable cells.
Setting [1] is: NCI-H1975, H1975, MTT, Table 2, read-out: IC50 against the growth of H1975 lung cancer cells.
Where [2] appears, read: NCI-H1975, H1975 lung cancer cell line, MTT, Table 3, read-out: IC50 H1975.
Where [3] appears, read: NCI-H1975, read-out: IC50 against the growth of H1975 lung cancer cells.

Where two headings read alike, the source gives them in different places.

In turn, `COc1ccccc1-n1c(=O)[nH]c2c(C(N)=O)nc(-c3ccc(O)cc3)nc21` [Compound 5b, 2-(4-Hydroxyphenyl)-9-(2-methoxyphenyl)-8-oxopurine-6-carboxamide] had a melting point of 370.2 to 371.8 °C.

As to `CCCCSc1nc2c(C(N)=O)nc(-c3ccc(OCC)cc3)nc2n1-c1ccccc1` [Compound 11b, 8-(Butylthio)-2-(4-ethoxyphenyl)-9-phenylpurine-6-carboxamide], in the data set on H1975 lung cancer cells (setting [1]), the IC50 is 6.37 ± 0.51 µM.

Take `CCCCCCCCCCCCNC(=O)c1cccc(-n2c(=O)[nH]c3c(C(N)=O)nc(-c4ccc(OCC)cc4)nc32)c1` [Compound 8b, 2-(4-Ethoxyphenyl)-9-(3-dodecylcarbamoyl)phenyl-8-oxopurine-6-carboxamide]: in the data set on H1975 lung cancer cells (setting [1]), the IC50 amounted to 10.5 ± 0.25 µM.

For the molecule `CCOc1ccc(-c2nc(C(N)=O)c3nc(SC)n(-c4ccccc4)c3n2)cc1` [Compound 11a, 2-(4-Ethoxyphenyl)-8-(methylthio)-9-phenylpurine-6-carboxamide], the melting point was 309.7 to 311 °C (dec.).

Take `C=CCn1oc(=O)nc1-c1nc(-c2ccc(OCC)cc2)nc2c1n(CC=C)c(=O)n2-c1ccccc1OC` [Compound 25a, 2-Allyl-3-[7-allyl-2-(4-ethoxyphenyl)-9-(2-methoxyphenyl)-8-oxopurin-6-yl]-1,2,4-oxadiazol-5-one]: the melting point is 88 to 90 °C.

In the case of `CCCCCCNC(=O)c1cccc(-n2c(=O)[nH]c3c(C(N)=O)nc(-c4ccc(OCC)cc4)nc32)c1` [Compound 8a, 2-(4-Ethoxyphenyl)-9-(3-hexylcarbamoyl)phenyl-8-oxopurine-6-carboxamide], the IC50 in the data set with H1975 lung cancer cells (setting [1]) stood at 0.49 ± 0.1 µM.

With `COc1ccc(-c2nc(C(=N)NO)c3[nH]c(=O)n(-c4ccccc4OC)c3n2)cc1O` [Compound 14f, 2-(3-Hydroxy-4-methoxyphenyl)-9-(2-methoxyphenyl)-8-oxopurine-6-(N-hydroxy)carboximidamide], the melting point was 226 to 228 °C. In addition, the IC50 in the data set on H1975 lung cancer cells (setting [1]) was determined as 2.8 µM. Also, the IC50 with H1975 lung cancer cells (setting [2]) worked out at 2.8 µM.

`CCOc1ccc(-c2nc(C#N)c3nc(N4CCOCC4)n(-c4ccccc4OC)c3n2)cc1` [Compound 33b, 2-(4-Ethoxyphenyl)-9-(2-methoxyphenyl)-8-morpholinopurine-6-carbonitrile]: the melting point was 273 to 275 °C. In addition, the IC50 in the data set with H1975 lung cancer cells (setting [2]) is 74 µM.

The molecule `COc1ccc(-c2nc(C#N)c3[nH]c(=O)n(-c4ccccc4OC)c3n2)cc1O` [Compound 12f, 2-(3-Hydroxy-4-methoxyphenyl)-9-(2-methoxyphenyl)-8-oxopurine-6-carbonitrile] displayed a melting point of 294 to 296 °C. Further, the 50% inhibitory concentration (IC50) with H1975 lung cancer cells (setting [1]) worked out at 25.8 µM. Also, in the data set with H1975 lung cancer cells (setting [2]), the IC50 is 25.8 µM.

With `CCOC(=O)Oc1nc2c(C#N)nc(-c3ccc(OCC)cc3)nc2n1-c1ccccc1OC` [Compound 17a, 6-Cyano-2-(4-ethoxyphenyl)-9-(2-methoxyphenyl)purin-8-yl ethyl carbonate], the melting point lay within 270 to 272 °C.

In the case of `CCOc1ccc(-c2nc(C#N)c3nc(NC(=O)OC(C)(C)C)n(-c4ccccc4OC)c3n2)cc1` [Compound 34a, Tert-butyl (6-cyano-2-(4-ethoxyphenyl)-9-(2-methoxyphenyl)purin-8-yl)carbamate], the melting point is 260 to 262 °C (dec.).

With `CCOc1ccc(-c2nc(C(N)=O)c3nc(SCC(=O)OC)n(-c4ccccc4)c3n2)cc1` [Compound 11f, 2-(4-Ethoxyphenyl)-8-(methoxycarbonylmethylthio)-9-phenylpurine-6-carb oxamide], in the data set on H1975 lung cancer cells (setting [1]), the IC50 turned out to be 2.1 µM.

With `CCOc1ccc(-c2nc(C(N)=O)c3[nH]c(=O)n(-c4cccc(C(=O)NCCCCCNC(=O)CCCC[C@@H]5SC[C@@H]6NC(=O)N[C@@H]65)c4)c3n2)cc1` [Compound 8f], in the data set with H1975 lung cancer cells (setting [3]), the IC50 was determined as 26.3 ± 0.31 µM.

As for `CCOc1ccc(-c2nc(C(N)=O)c3[nH]c(=O)n(-c4cccc(C(=O)NCCCCCNC(=O)OC(C)(C)C)c4)c3n2)cc1` [Compound 8d, 2-(4-Ethoxyphenyl)-9-[3-(5-tert-butoxycarbonylamino)pentylcarbamoyl]phenyl-8-oxopurine-6-carboxamide], in the data set on H1975 lung cancer cells (setting [1]), the IC50 was 15.5 ± 1.96 µM.

Take `CCOc1ccc(-c2nc(C(N)=O)c3nc(S)n(-c4ccccc4)c3n2)cc1` [Compound 10a, 2-(4-Ethoxyphenyl)-9-phenyl-8-mercaptopurine-6-carboxamide]: the melting point is 321.2 to 321.8 °C (dec.).

`CCOc1ccc(-c2nc(C#N)c3nc(S)n(-c4ccccc4)c3n2)cc1` [Compound 27a, 2-(4-Ethoxyphenyl)-8-mercapto-9-phenylpurine-6-carboxnitrile] came in with a melting point of 278.5 to 280 °C.

As for `CCOc1ccc(-c2nc(C(N)=O)c3nc(SCC(=O)N4CCN(C(=O)OC(C)(C)C)CC4)n(-c4ccccc4)c3n2)cc1` [Compound 11d, 2-(4-Ethoxyphenyl)-9-phenyl-8-{[(4-tert-butoxycarbonyl)piperazinocarbonyl]methylthio}purine-6-carb oxamide], in the data set with H1975 lung cancer cells (setting [1]), the IC50 came to 1.8 µM.

Molecule `CCCCOc1ccc(-c2nc(C(N)=O)c3[nH]c(=O)n(-c4ccccc4OC)c3n2)cc1` [Compound 5c, 2-(4-Butoxyphenyl)-9-(2-methoxyphenyl)-8-oxopurine-6-carboxamide] returned a melting point of 268.7 to 270.2 °C. For the same molecule, in the data set with H1975 lung cancer cells (setting [1]), the IC50 amounted to 4.66 ± 0.05 µM.

The molecule `COC(=O)c1cccc(-n2c(=O)[nH]c3c(C(N)=O)nc(-c4ccc(OC)c(O)c4)nc32)c1` [Compound 5j, 2-(3-Hydroxy-4-methoxyphenyl)-9-(3-methoxycarbonylphenyl)-8-oxopurine-6-carboxamide] returned a melting point of 333.3 to 334.3 °C. Further, the IC50 in the data set on H1975 lung cancer cells (setting [3]) was determined as 0.35 ± 0.01 µM.

Consider `CCOc1ccc(-c2nc(C#N)c3c(n2)n(-c2ccccc2OC)c(=O)n3Cc2ccccc2)cc1` [Compound 15c, 7-Benzyl-2-(4-ethoxyphenyl)-9-(2-methoxyphenyl)-8-oxopurine-6-carbonitrile], for which the melting point was 164 to 166 °C.

Molecule `CCOc1ccc(-c2nc(C#N)c3c(n2)n(-c2ccccc2OC)c(=O)n3C)cc1` [Compound 15a, 2-(4-Ethoxyphenyl)-9-(2-methoxyphenyl)-7-methyl-8-oxopurine-6-carbonitrile] yielded a melting point of 235 to 237 °C.

Regarding `CCOc1ccc(-c2nc(C(N)=O)c3nc(SC(C)=O)n(-c4ccccc4)c3n2)cc1` [Compound 26a, 8-(Acetylthio)-2-(4-ethoxyphenyl)-9-phenylpurine-6-carboxamide], the IC50 in the data set with H1975 lung cancer cells (setting [1]) and in the data set with H1975 lung cancer cells (setting [2]) was 41.6 ± 11.6 µM each time.

`CCOc1ccc(-c2nc(C#N)c3nc(N)n(-c4ccccc4OC)c3n2)cc1` [Compound 33a, 8-Amino-2-(4-ethoxyphenyl)-9-(2-methoxyphenyl)purine-6-carbonitrile] registered a melting point of 297 to 299 °C.

`CCOc1ccc(-c2nc(C#N)c3[nH]c(=O)n(-c4ccccc4OC)c3n2)cc1` [Compound 12a, 2-(4-Ethoxyphenyl)-9-(2-methoxyphenyl)-8-oxopurine-6-carbonitrile] gave a melting point of 288 to 290 °C.

With `CCOc1ccc(-c2nc(C(N)=O)c3nc(S)n(-c4cc(C(F)(F)F)cc(C(F)(F)F)c4)c3n2)cc1` [Compound 10c, 9-(3,5-Bis(trifluoromethyl)phenyl)-2-(4-ethoxyphenyl)-8-mercaptopurine-6-carboxamide], the melting point was in the range of 299 to 301 °C.

Molecule `CCOc1ccc(-c2nc(C#N)c3[nH]c(=O)n(-c4cccc(C(=O)OC)c4)c3n2)cc1` [Compound 12c, 2-(4-Ethoxyphenyl)-9-(3-methoxycarbonylphenyl)-8-oxopurine-6-carbonitrile] showed a melting point of 297 to 299 °C.

The molecule `CCOc1ccc(-c2nc(C#N)c3nc(SC(=O)OCc4ccccc4)n(-c4ccccc4)c3n2)cc1` [Compound 28a, 8-(Benzyloxycarbonylthio)-2-(4-ethoxyphenyl)-9-phenylpurine-6-carboxnitrile] showed a melting point of 179.2 to 180.4 °C.

Take `COc1ccc(-c2nc(C(N)=O)c3[nH]c(=O)n(-c4ccccc4OC)c3n2)cc1O` [Compound 5n, 2-(3-Hydroxy-4-methoxyphenyl)-9-(2-methoxyphenyl)-8-oxopurine-6-carboxamide]: the melting point lay in the range of 319 to 321 °C.

Take `CCOc1ccc(-c2nc(C(N)=O)c3[nH]c(=O)n(-c4cccc(C(=O)O)c4)c3n2)cc1` [Compound 6e, 2-(4-Ethoxyphenyl)-9-(3-carboxy)phenyl-8-oxopurine-6-carboxamide]: the IC50 with H1975 lung cancer cells (setting [1]) stood at 7.91 ± 0.18 µM.

Molecule `CCOc1ccc(-c2nc(C(N)=O)c3[nH]c(=O)n(-c4cc(C(F)(F)F)cc(C(F)(F)F)c4)c3n2)cc1` [Compound 5m, 9-(3,5-Bis(trifluoromethyl)phenyl)-2-(4-ethoxyphenyl)-8-oxopurine-6-carboxamide] came in with a melting point of 288 to 290 °C.

`CCOc1ccc(-c2nc(C(=N)NO)c3[nH]c(=O)n(-c4cccc(C(=O)OC)c4)c3n2)cc1` [Compound 14c, 2-(4-Ethoxyphenyl)-9-(3-methoxycarbonylphenyl)-8-oxopurine-6-(N-hydroxy)carboximidamide] showed a melting point of 257 to 259 °C.

Regarding `CCOc1ccc(-c2nc(C(N)=O)c3nc(SCC(=O)O)n(-c4ccccc4)c3n2)cc1` [Compound 11g, 8-(Carboxymethylthio)-2-(4-ethoxyphenyl)-9-phenylpurine-6-carboxamide], the IC50 in the data set on H1975 lung cancer cells (setting [1]) turned out to be 3.94 ± 0.06 µM.

Regarding `NC(=O)c1nc(-c2ccc(O)cc2)nc2c1nc(S)n2-c1ccccc1`, the melting point was in the range of 361 to 363 °C.

Consider `CCOc1ccc(-c2nc(C(N)=O)c3[nH]c(=O)n(-c4cccc(C(=O)NCCCCCN=[N+]=[N-])c4)c3n2)cc1` [Compound 8c, 2-(4-Ethoxyphenyl)-9-[3-(5-azidopentylcarbamoyl)]phenyl-8-oxopurine-6-carboxamide], for which, in the data set on H1975 lung cancer cells (setting [1]), the IC50 is 0.39 ± 0.01 µM.

In turn, `CCOc1ccc(-c2nc(C(N)=O)c3[nH]c(=O)n(-c4cccc([N+](=O)[O-])c4)c3n2)cc1` [Compound 5l, 2-(4-Ethoxyphenyl)-9-(3-nitrophenyl)-8-oxopurine-6-carboxamide] registered a melting point of 322.8 to 324.3 °C.

Molecule `C=CCn1c(=O)n(-c2ccccc2OC)c2nc(-c3ccc(OCC)cc3)nc(C#N)c21` showed a melting point of 144 to 146 °C.

What is called melting point is the temperature, or range, at which the solid turns liquid. The IC50 is the point on the concentration scale where inhibition reaches its midpoint.
